In one test the target is Met (Homo sapiens, UniProt P08581). Kind of test: Human Met kinase assay (33P-phosphoryl transfer radiometric, KinaseProfiler). The arrangement: Human Met (residues R974-S1390 with A1209G and V1290L, 3.4 nM); purchased Eurofins Pharma Discovery Services UK Limited (KinaseProfiler service). Particulars: biochemical activity; 10 μM ATP; read-out: c-Met IC50. How it is done: (§1) Kinase activity and compound inhibition were investigated using the ^33P-Phosphoryl transfer radiometric kinase assay, performed using the KinaseProfiler™ service of Eurofins Pharma Discovery Services UK Limited. Dose-response experiments were performed using nine compound concentrations in a 96-well microtiter plate. For each assay, all compounds were prepared to a 50× final assay concentration (50 μM) in 100% DMSO, then diluted in a half-log series, with the final top concentration at 1 μM. This working stock of the compound was added to the assay well as the first component in the reaction, followed by the remaining components as detailed in the following assay protocols below. The positive control wells (100% kinase activity) contain all components of the reaction including 2% DMSO (control for solvent effects), except the compound of interest. Blank wells contain all components of the reaction, with the reference inhibitor, staurosporine. This reference compound was used to abolish kinase activity and generated the 0% kinase activity base-line. IC50 values were calculated by nonlinear regression analysis using the sigmoidal dose-response (variable slope) curve fit on XLFit version 5.3 (ID Business Solutions).
Sequence of Met (P08581 974-1390): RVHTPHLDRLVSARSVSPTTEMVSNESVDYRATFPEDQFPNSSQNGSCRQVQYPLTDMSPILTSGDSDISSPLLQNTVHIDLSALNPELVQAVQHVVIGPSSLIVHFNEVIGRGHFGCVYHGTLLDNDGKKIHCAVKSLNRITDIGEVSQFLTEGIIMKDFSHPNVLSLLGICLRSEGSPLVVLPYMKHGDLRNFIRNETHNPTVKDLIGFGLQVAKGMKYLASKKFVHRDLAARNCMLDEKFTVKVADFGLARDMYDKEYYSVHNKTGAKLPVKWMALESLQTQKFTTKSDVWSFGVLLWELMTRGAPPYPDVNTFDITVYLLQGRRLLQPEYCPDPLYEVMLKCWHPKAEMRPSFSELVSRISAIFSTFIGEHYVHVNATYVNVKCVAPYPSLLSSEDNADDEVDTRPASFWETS
(§2) Human Met (residues R974-S1390 with A1209G and V1290L, 3.4 nM) was incubated with 8 mM MOPS pH 7.0, 0.2 mM EDTA, 250 μM KKKGQEEEYVFIE, 1 mM sodium orthovanadate, 5 mM sodium-6-glycerophosphate, 10 mM magnesium acetate, and 10 μM [γ-^33P-ATP]. The reaction was initiated by the addition of the Mg/ATP mix. After incubation for 40 minutes at room temperature, the reaction was stopped by the addition of phosphoric acid to a concentration of 0.5%. A reaction aliquot of 10 μL was then spotted onto a P30 filtermat and washed four times for 4 minutes in 0.425% phosphoric acid and once in methanol prior to drying and scintillation counting. Incorporated ^33P was measured using the Wallac Microbeta scintillation counter (Perkin Elmer).

A further test has as its target T1, Human Axl (Homo sapiens, UniProt P30530, Q764R).
T1 construct: Human Axl (residues H473-A894 with Q764R, 161 nM); purchased Eurofins Pharma Discovery Services UK Limited (KinaseProfiler service)
T1 sequence (P30530 473-894 Q764R): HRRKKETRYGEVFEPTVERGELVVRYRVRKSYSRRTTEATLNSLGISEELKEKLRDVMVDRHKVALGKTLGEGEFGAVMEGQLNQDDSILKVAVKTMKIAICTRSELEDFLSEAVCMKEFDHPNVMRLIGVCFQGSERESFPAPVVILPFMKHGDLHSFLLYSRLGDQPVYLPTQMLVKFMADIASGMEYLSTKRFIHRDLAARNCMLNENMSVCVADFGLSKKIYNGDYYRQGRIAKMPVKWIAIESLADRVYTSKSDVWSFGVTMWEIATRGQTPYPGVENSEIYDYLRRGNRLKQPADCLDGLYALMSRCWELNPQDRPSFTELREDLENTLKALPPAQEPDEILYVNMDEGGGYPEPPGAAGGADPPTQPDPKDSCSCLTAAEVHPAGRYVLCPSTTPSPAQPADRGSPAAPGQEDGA
Kind of test: Human AXL kinase assay (33P-phosphoryl transfer radiometric, KinaseProfiler). The conditions noted are these: biochemical activity; 10 μM ATP. Here is the method: as §1
as §2, with “Axl” for “Met”, “H473-A894” for “R974-S1390”, “Q764R, 161” for “A1209G and V1290L, 3.4”, “KKSRGDYMTMQIG,” for “KKKGQEEEYVFIE, 1 mM sodium orthovanadate, 5 mM sodium-6-glycerophosphate,”, “[y-^33P-ATP].” for “[γ-^33P-ATP].”

The text below walks through data of patent US12503438B2, “Compounds for the treatment of kinase-dependent disorders” (Exelixis, Inc., priority 2019, dated 2025).

Structures are written as SMILES. pIC50: −log10 of the molar value. Bounds are passed on as bounds.

Broadly, the pIC50 is the negative decadic logarithm of the IC50, by convention in mol/L.

In the case of `CCn1cc(-c2ccc3c(Oc4ccc(NC(=O)C5(C(=O)Nc6ccc(F)cc6)CC5)cc4)ccnc3c2)cn1` [Compound 20, 1-N-[4-[7-(1-Ethylpyrazol-4-yl)quinolin-4-yl]oxyphenyl]-1-N′-(4-fluorophenyl)cyclopropane-1,1-dicarboxamide], the pIC50 at Met and at Human Axl was ≥ 8.00 in each case.
Turning to `O=C(Nc1ccc(F)cc1)C1(C(=O)Nc2ccc(Oc3ccnc4cc(-c5ccncc5)ccc34)cc2)CC1` [Compound 26, 1-N′-(4-Fluorophenyl)-1-N-[4-(7-pyridin-4-ylquinolin-4-yl)oxyphenyl]cyclopropane-1,1-dicarboxamide], the pIC50 on Met was ≥ 8.00; on Human Axl, 7.00 to 8.00.
For `CS(=O)(=O)n1cc(-c2ccc3c(Oc4ccc(NC(=O)C5(C(=O)Nc6ccc(F)cc6)CC5)cc4)ccnc3c2)cn1` [Compound 79, 1-N′-(4-Fluorophenyl)-1-N-[4-[7-(1-methylsulfonylpyrazol-4-yl)quinolin-4-yl]oxyphenyl]cyclopropane-1,1-dicarboxamide], in that order: ≥ 8.00 and ≥ 8.00.
On to `COCCn1cc(-c2ccc3c(Oc4ccc(NC(=O)C5(C(=O)Nc6ccc(F)cc6)CC5)cc4)ccnc3c2)cn1` [Compound 10, 1-N′-(4-Fluorophenyl)-1-N-[4-[7-[1-(2-methoxyethyl)pyrazol-4-yl]quinolin-4-yl]oxyphenyl]cyclopropane-1,1-dicarboxamide], for which the pIC50 at Met was 7.00 to 8.00; against Human Axl it was ≥ 8.00.
For the compound `C#Cc1ccc2c(Oc3ccc(NC(=O)C4(C(=O)Nc5ccc(F)cc5)CC4)cc3)ccnc2c1` [Compound 64, 1-N-[4-(7-Ethynylquinolin-4-yl)oxyphenyl]-1-N′-(4-fluorophenyl)cyclopropane-1,1-dicarboxamide], the pIC50 on Met is ≥ 8.00; against Human Axl, 7.00 to 8.00.
With `O=C(Nc1ccc(F)cc1)C1(C(=O)Nc2ccc(Oc3ccnc4cc(-c5nnco5)ccc34)cc2)CC1` [Compound 73, 1-N′-(4-Fluorophenyl)-1-N-[4-[7-(1,3,4-oxadiazol-2-yl)quinolin-4-yl]oxyphenyl]cyclopropane-1,1-dicarboxamide], the negative-log IC50 (pIC50) was ≥ 8.00 at Met and 7.00 to 8.00 on Human Axl.
Turning to `O=C(Nc1ccc(F)cc1)C1(C(=O)Nc2ccc(Oc3ccnc4cc(-c5cnn(C(F)F)c5)ccc34)cc2)CC1` [Compound 13, 1-N-[4-[7-[1-(Difluoromethyl)pyrazol-4-yl]quinolin-4-yl]oxyphenyl]-1-N′-(4-fluorophenyl)cyclopropane-1,1-dicarboxamide], the pIC50 was ≥ 8.00 at Met and 7.00 to 8.00 on Human Axl.
For `Cc1cc(F)cc(C)c1NC(=O)C1(C(=O)Nc2ccc(Oc3ccnc4cc(-c5cnn(C)c5)ccc34)cc2)CC1` [Compound 82, 1-N′-(4-Fluoro-2,6-dimethylphenyl)-1-N-[4-[7-(1-methylpyrazol-4-yl)quinolin-4-yl]oxyphenyl]cyclopropane-1,1-dicarboxamide], in that order: 7.00 to 8.00 and 7.00 to 8.00.
